The text below walks through data of patent US9586914B2, “Modulators of C3a receptors” (THE UNIVERSITY OF QUEENSLAND, priority 2011, dated 2017).

Assay [1] deals with T1, C3aR (Homo sapiens, UniProt Q16581).
T1 construct: peripheral blood mononuclear cells were isolated from buffy coat (obtained from Australian Red Cross Blood Service, Kelvin Grove); endogenous in cells; host or cells: primary human monocyte-derived macrophages (HMDM) differentiated from CD14+ monocytes of donor buffy coat
T1 sequence (Q16581 1-482): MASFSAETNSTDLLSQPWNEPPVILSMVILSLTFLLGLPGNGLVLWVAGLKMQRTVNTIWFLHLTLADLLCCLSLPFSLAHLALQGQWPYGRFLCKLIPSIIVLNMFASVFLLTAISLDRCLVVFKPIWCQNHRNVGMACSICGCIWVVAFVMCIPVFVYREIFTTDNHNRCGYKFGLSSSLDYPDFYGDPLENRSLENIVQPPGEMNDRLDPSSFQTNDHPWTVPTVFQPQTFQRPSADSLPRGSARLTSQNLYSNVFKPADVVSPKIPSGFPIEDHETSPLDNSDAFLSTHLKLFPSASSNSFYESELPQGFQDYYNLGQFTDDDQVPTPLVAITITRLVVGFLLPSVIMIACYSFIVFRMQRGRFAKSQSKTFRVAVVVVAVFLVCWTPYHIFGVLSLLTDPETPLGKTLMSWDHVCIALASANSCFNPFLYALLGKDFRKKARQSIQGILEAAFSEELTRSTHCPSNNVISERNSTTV
Briefly: Calcium mobilization assay in HMDM (agonist/antagonist activity). The format is cell-based. The following applies: Table 9, Ca^2+ mobilization, HMDM. A digest of the protocol: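 Human monocyte-derived macrophages, 5×10^4 cells/well, loaded 1 h at 37 °C with 4 μM Fluo-3 in HBSS/HEPES/probenecid buffer, pH 7.4. Agonist mode: calcium release read 300 s; antagonist mode: 900 s compound preincubation then agonist, read 300 s (ex 485/em 520 nm); compared with hC3a.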

Assay [2] deals with T1, C3aR. Briefly: Desensitization experiments (Ca^2+ efflux after hC3a desensitization). The format is cell-based. The following applies: hC3a 3 μM first; second addition of 1 μM compound; HMDM. As for the experimental part:
Desensitization experiments were used to measure the selectivity of various ligands for C3aR, since this can help to clarify whether the non-peptidic ligands bind selectively to C3aR over other GPCRs that signal through intracellular calcium release.
The hC3a (3 μM) was administered to human monocyte derived macrophage cells, which produces an efflux of intracellular Ca^2+ that dissipates after 4-5 mins (FIGS. 4A and 4B). A second addition of 3 μM hC3a after 5 mins has no effect, due to desensitization of the receptor through either receptor (C3a receptor) phosphorylation or receptor internalization from the cell surface.

In another assay the target is T2, C3a receptor (C3aR) (Homo sapiens, UniProt Q16581).
T2 construct: peripheral blood mononuclear cells were isolated from buffy coat (obtained from Australian Red Cross Blood Service, Kelvin Grove); endogenous in cells; host or cells: primary human monocyte-derived macrophages (HMDM) differentiated from CD14+ monocytes of donor buffy coat
T2 sequence (Q16581 1-482): T1 sequence (Q16581 1-482)
Briefly: Competitive binding with [^125I]-C3a in HMDM. To be noted: Table 6, competitive binding with [^125I]-C3a, HMDM. The procedure, abridged: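 IC50 values are geometric means, with −log IC50 computed per experiment and given as arithmetic mean ± SE. Cells were CD14+ monocytes from buffy-coat PBMC, differentiated to macrophages and used on day 7. Unbound label was removed by GF/B filtration with 3 cold washes in 50 mM Tris-HCl pH 7.4.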

What is called EC50 is the midpoint of the concentration-response curve. Usually IC50 stands for the concentration needed to halve the response being measured. For the compound `CC(C)C[C@H](NC(=O)c1c[nH]c2ccccc12)c1nc(C(=O)N[C@@H](CCCNC(=N)N)C(=O)O)co1` [Compound 8, 3-Indole Carboxylic Acid-Leucine-Oxazole-Arginine-OH], the “pEC50 ± SEM” value on C3aR [1] was 8.15 ± 0.10. Moreover, at C3aR [1] (read-out: EC50), the EC50 amounted to 7.2 nM. In addition, at C3aR [2], the “Ca^2+ efflux on addition after first desensitization with hC3a (selectivity for C3aR over other GPCRs)” value is “caused a second efflux of intracellular Ca^2+”. In addition, the “pIC50 ± SEM” value at C3a receptor (C3aR) came to 8.03 ± 0.05. Besides, at C3a receptor (C3aR) (read-out: IC50 (converted)), the 50% inhibitory concentration (IC50) was 9 nM.
